Source: patent publication US12661353B2, “SPT5 inhibitors and uses thereof” (Yeda Research and Development Co. Ltd., priority 2020, dated 2026)

Legend:
[1] = target: T1, Rpb1 CC domain (His-Rpb1) (Homo sapiens, UniProt P24928); assay: Binding assay by intrinsic fluorescence of purified His-Rpb1; conditions: read-out: IC50, decrease of intrinsic fluorescence of Rpb1 (Pol II)
T1 construct: His tag; made in house; host or cells: E. coli; purified on nickel agarose beads
Description: Binding assay—In order to measure binding of the indicated compound to Spt5 and/or Pol II; Spt5-Spt4 or Rpb1 fused to a histidine (His) tag were expressed in E. coli (SEQ ID Nos: 2-3, 5-6 and 81) and purified on nickel agarose beads as described in Ashkenazi et al. 2016. The proteins were incubated for 10 minutes with increasing concentrations of the indicated compound in a black 384 wells microplate in a total volume of 20 μl. Binding was assessed by measuring the changes in the intrinsic fluorescence (280 nm) using Cytation™ 5 (BioTek).
Two identified compounds, SPI-21 and SPI-18, were further validated for their direct interaction with either Spt5 or Rpb1 CC domain. […] Using the purified proteins, fluorescence intensity measurements were performed in the presence of increasing concentrations of SPI-21 or SPI-18. This method analyzes binding by monitoring the changes in the intrinsic fluorescence of the proteins as a consequence of conformational changes. […]
Direct interaction with either the Spt5 or the Rpb1 CC domain of SPI-21 and SPI-18 was further validated. […] Using the purified proteins, fluorescence intensity measurements were performed in the presence of increasing concentrations of SPI-21 and SPI-18. This method analyzes binding by monitoring the changes in the intrinsic fluorescence of the proteins as a consequence of conformational changes. […]

[2] = target: T2, endogenous Spt4/Spt5-Pol II complex (Homo sapiens, UniProt O00267+P24928); assay: Co-immunoprecipitation of endogenous Spt4/Spt5-Pol II complex, HeLa lysates; format: binding; conditions: 50 μM
T2 construct: endogenous in cells; host or cells: HeLa cell lysate, immunoprecipitated with anti-Spt5 antibody
Description: Co-immunoprecipitation (CO-IP)—HeLa cells were detached from a 10 cm dish with ice-cold PBS and a cell scraper, centrifuged for 5 minutes at 2,000 rpm and re-suspended in 200 μl lysis buffer (20 mM Tris-HCl pH 8, 400 mM NaCl, 2 mM EDTA, 0.5% NP-40, 10% glycerol) to which a protease inhibitor cocktail (1:100) and PMSF (200 μM) were freshly added. The lysates were rotated for 10 minutes at 4° C.; and centrifuged for 15 minutes at 13,000 rpm. Following, the supernatants were diluted with lysis buffer without NaCl to reach a final concentration of 100 mM NaCl. Cell lysates were then incubated at 4° C. overnight with an anti-Spt5 antibody (Tadashi Wada et al., 1998 Genes and Development. PMID: 9450929) or rabbit IgG (SC-2025, Santa Cruz Biotechnology), followed by 2 hours incubation at 4° C. with Protein A/G Sepharose beads (GE Healthcare). Following, the samples were washed 3 times and incubated for 2 hours at 4° C. with DMSO (vehicle control) or the indicated compound. The immune-precipitated proteins were detected by SDS-PAGE followed by western blot using an anti-Spt5, anti-Pol II (ab817, Abcam) or anti-Spt4 (Kim D K. et al, Genes to cells 2003 PMID: 12653964).
In the next step, co-immunoprecipitation in the presence of SPI-21 or SPI-18 was performed to test their effect of endogenous Spt4/Spt5-Pol II complex. […]

COc1ccc(C=CC(=O)c2cc(O)ccc2O)cc1 [SPI-21]
IC50 [1]: 23 µM
effect on Spt5-Pol II binding (co-immunoprecipitation) [2]: did not disrupt Spt5-Pol II binding

Nc1ccccc1SC(CC(=O)c1cccs1)c1cccs1 (stereo not shown) [SPI-18]
IC50 [1]: 76 µM
effect on Spt5-Pol II binding (co-immunoprecipitation) [2]: did not disrupt Spt5-Pol II binding
